Test results published in ChEMBL document CHEMBL3352125, “Cytotoxic activity of substituted chalcones in terms of molecular electronic properties” (Bioorg Med Chem Lett, 2014).

What was measured:
Type in all cases: functional, cell-based
[1] = Cytotoxicity against human WM115 cells by MTT assay; details: WM-115
[2] = Cytotoxicity against human NALM6 cells by MTT assay; details: NALM-6
[3] = Cytotoxicity against human HL60 cells by MTT assay; details: HL-60

SMILES | IC50 [1] | IC50 [2] | IC50 [3]
O=C(/C=C/c1ccccc1)c1cc(O)ccc1O | 61.3 µM | 5.5 µM | 5.3 µM
O=C(/C=C/c1ccc(O)cc1)c1ccccc1O | 69.1 µM | 40.6 µM | 7.1 µM
O=C(/C=C/c1ccccc1Cl)c1ccccc1O | 7.6 µM | 6.1 µM | 7.7 µM
O=C(/C=C/c1ccc(Cl)cc1)c1ccccc1O | 48.9 µM | 9.3 µM | 8.3 µM
COc1ccc(/C=C/C(=O)c2ccccc2O)cc1 | 60.5 µM | 50.2 µM | 48.7 µM
O=C(/C=C/c1ccc([N+](=O)[O-])cc1)c1ccccc1O | 27.6 µM | 6.9 µM | 5.8 µM
COc1cc(/C=C/C(=O)c2ccccc2O)cc(OC)c1OC | 56.4 µM | 31.7 µM | 39.3 µM
O=C(/C=C/c1ccc(Br)cc1)c1ccccc1O | 50 µM | 6.8 µM | 7.3 µM
O=C(/C=C/c1ccccc1)c1ccc(O)cc1O [2',4'-DIHYDROXYCHALCONE] | 42 µM | 18 µM | 6.3 µM
O=C(/C=C/c1ccccc1)c1ccccc1O [2'-HYDROXYCHALCONE] | 40.8 µM | 37.5 µM | 18 µM
O=C(/C=C/c1ccccc1)c1ccccc1 [CHALCONE] | 43.1 µM | 23.9 µM | 55.4 µM
O=C1CCOc2ccccc21 [CHROMANONE] | 53.2 µM | 8.2 µM | 19.1 µM
